The conditions of data set [1]: rabbit plasma, 37° C.; for Sampling time/dissociation percent (%) 15 s / Sampling time/dissociation percent (%) 30 s: formula F derivatives; for Sampling time/dissociation percent (%) 15 S / Sampling time/dissociation percent (%) 30 S: formula G derivatives.
Experimental: (§1) 0.1 ml samples were taken from each of the solutions, added respectively to 1 ml of blood plasma of rabbit (taken from New Zealand white rabbits, treated according to conventional methods, anticoagulated with heparin) or 1 ml of blood plasma of rat (taken from live SD rats, treated according to conventional methods, anticoagulated with heparin), homogeneously mixed, and placed in a thermostatic water bath at 37° C. for incubation with time being recorded. Samples were taken at different time points after the experiment began, and 2 ml of acetonitrile was immediately added. The samples were shaken and centrifuged for 5 min (15,000 rpm), and the supernatant was then taken for HPLC analysis.
The conditions of data set [2]: rat plasma, 37° C.
Experimental: as §1
Data set [3] relates to human ovarian cancer SK-OV-3. The settings on record: 24 mg/kg (paclitaxel 16 mg/kg) D0-4 IV; for Tumor inhibitory percent (%) D22: P=0.000 compared to the control.
Text: Test of the inhibitory activity of the water soluble paclitaxel derivatives on subcutaneously xenografted tumor of human ovarian cancer SK-OV-3 in nude mice: evaluating and comparing the inhibitory activity of the water soluble paclitaxel derivatives of the present invention, paclitaxel and Abraxane® on subcutaneously xenografted tumor of human ovarian cancer SK-OV-3 in nude mice.
Human ovarian cancer SK-OV-3 cells were subcutaneously inoculated to nude mice. After the tumor volume reached 100-150 mm^3, the animals were randomly divided into groups (D0), and administered with the water soluble paclitaxel derivatives of the present invention, paclitaxel, and Abraxane®, respectively once per day for 5 days. The tumor volume was measured 2-3 times per week, the animals were weighed and the data were recorded until day 22 (D22) after grouping.
The tumor volume (V) was calculated according to the equation: V=½×a×b^2, wherein a and b represent the length and the width, respectively.
T/C (%)=(T−T0)/(C−C0)×100, wherein T and C represent the tumor volume at the end of the experiment; and T0 and C0 represent the tumor volume at the beginning of the experiment.
A short description of data set [4]: In vitro dissociation of the water soluble taxane derivatives in blood plasma of rat. In kind it is in vitro ADME, SD rats. The settings on record: 37° C. The procedure:
The obtained water soluble taxane derivatives were formulated as 0.2 mg/ml aqueous solutions. […] After 2 min, 5 min and 10 min of incubation, 0.2 ml of solutions were respectively taken from each of the samples, and added to acetonitrile (0.4 ml) cooled to −20° C. for precipitation of protein.

Data set [5] is described as follows: In vitro dissociation of the water soluble taxane derivatives in blood plasma of rabbit. In kind it is in vitro ADME, New Zealand white rabbits. Conditions: 37° C. The method, then: The obtained water soluble taxane derivatives were formulated as 0.2 mg/ml aqueous solutions. […] After 5 min, 20 min and 60 min of incubation, 0.2 ml of solutions were respectively taken from each of the samples, and added to acetonitrile (0.4 ml) cooled to −20° C. for precipitation of protein.

Setting [6] is: formula G derivatives, sampling time 15 s.

The values that follow come from US10239851B2 (priority 2014, dated 2019).

Molecules are shown by their SMILES. Read-outs that look alike come from different tables or passages of the source.

Regarding `CC(C)c1cccc(C(C)C)c1OC(=O)C(F)CCN(C)C.Cl` (racemic) [Compound E1, Propofol 4-(N,N-dimethyl)amino-2(R,S)-fluorobutyrate Hydrochloride], the dissociation percent in data set [1] (15 s) came to 67.5%; in data set [1] (30 s), 85.5%; in data set [2] (5 s), 75.1%; in data set [2] (15 s), 83.2%; in data set [2] (30 s), 96.7%.
Take `CCN(C)CCC(F)C(=O)Oc1c(C(C)C)cccc1C(C)C.Cl` (racemic) [Compound E4, propofol 4-(N-methyl-N-ethyl)amino-2(R,S)-2-fluorobutyrate hydrochloride]: the dissociation percent is on record as 58.3% in data set [1] (15 s), 70.4% in data set [1] (30 s) and 70.2% in data set [2] (5 s).
For the compound `CC(C)NCC(CF)C(=O)Oc1c(C(C)C)cccc1C(C)C.CS(=O)(=O)O` (racemic) [Compound E6, propofol 3-(N-isopropyl)amino-2(R,S)-2-monofluoromethylpropionate methanesulfonate], the dissociation percent in data set [1] (15 s) worked out at 27.1%; in data set [1] (30 s), 44.3%; in data set [2] (5 s), 24.2%; in data set [2] (15 s), 40.1%.
As to `CC(C)c1cccc(C(C)C)c1OC(=O)C(F)CCCCCC(=O)[O-].CC(C)c1cccc(C(C)C)c1OC(=O)C(F)CCCCCC(=O)[O-].[Ca+2]` (racemic) [Compound F4, di[propofol 7-carboxyl-2(R,S)-fluorocaprylate] calcium salt], in data set [1], the “Sampling time/dissociation percent (%) 15 s” value stood at 48.3% and the “Sampling time/dissociation percent (%) 30 s” value is 61.7%. Further, in data set [2] (formula F derivatives), the “Sampling time/dissociation percent (%) 5 s” value was determined as 63.8%.
`CC(C)c1cccc(C(C)C)c1OC(=O)C(CF)CCCCCCC(=O)[O-].CC(C)c1cccc(C(C)C)c1OC(=O)C(CF)CCCCCCC(=O)[O-].CC(C)c1cccc(C(C)C)c1OC(=O)C(CF)CCCCCCC(=O)[O-].[Al+3]` (racemic) [Compound F6, tri[propofol 8-carboxyl-2(R,S)-monofluoromethylpelargonate] aluminum salt]: the “Sampling time/dissociation percent (%) 15 s” value in data set [1] worked out at 37.1%; in data set [2] (formula F derivatives, sampling time 15 s), 55.7%. In addition, the “Sampling time/dissociation percent (%) 30 s” value in data set [1] amounted to 58.3%. Besides, the “Sampling time/dissociation percent (%) 5 s” value in data set [2] (formula F derivatives) is 34.2%.
`CC(C)c1cccc(C(C)C)c1OC(=O)C(F)CCOP(=O)([O-])[O-].[K+].[K+]` (racemic) [Compound G1, {1-[4-(2,6-diisopropylphenoxy)-4-oxo-3-(R,S)-3-fluoro-1-butyl]} phosphate monoester dipotassium salt]: the “Sampling time/dissociation percent (%) 15 S” value in data set [1] was determined as 43.7%; in data set [2] (setting [6]), 67.4%. Moreover, the “Sampling time/dissociation percent (%) 30 S” value in data set [1] is reported as 68.7%; in data set [2] (formula G derivatives, sampling time 30 s) it was 86.9%. For the same compound, in data set [2] (formula G derivatives), the “Sampling time/dissociation percent (%) 5 S” value is 54.1%.
Regarding `CC(C)c1cccc(C(C)C)c1OC(=O)C(CF)CP(=O)([O-])[O-].CC(C)c1cccc(C(C)C)c1OC(=O)C(CF)CP(=O)([O-])[O-].CC(C)c1cccc(C(C)C)c1OC(=O)C(CF)CP(=O)([O-])[O-].[Al+3].[Al+3]` (racemic) [Compound G6, tri[propofol 3-phosphoryl-2(R,S)-2-monofluoromethylpropionate] dialuminum salt], in data set [1], the “Sampling time/dissociation percent (%) 15 S” value amounted to 27.1% and the “Sampling time/dissociation percent (%) 30 S” value was 44.3%. Further, the “Sampling time/dissociation percent (%) 5 S” value in data set [2] (formula G derivatives) is reported as 22.1%. In data set [2] (setting [6]), the “Sampling time/dissociation percent (%) 15 S” value is listed as 39.7%.
For `CC(=O)O[C@H]1C(=O)[C@@]2(C)[C@H]([C@H](OC(=O)c3ccccc3)[C@]3(O)C[C@H](OC(=O)[C@H](OC(=O)[C@H](F)CCN(C)C)[C@@H](NC(=O)c4ccccc4)c4ccccc4)C(C)=C1C3(C)C)[C@]1(OC(C)=O)CO[C@@H]1C[C@@H]2O.CS(=O)(=O)O` [Compound C1, 2′-O-[4-(N,N-dimethyl)amino-2(R)-fluorobutyryl]paclitaxel methanesulfonate], the “Tumor volume (D0)” value in data set [3] (D0, at grouping) was found to be 133.6 ± 9.5 mm^3. The “Weight change (%) D4” value in data set [3] was −5.9%. The “T/C (%) D22” value in data set [3] is given as −63%. Further, in data set [3], the “Tumor inhibitory percent (%) D22” value is 163%. For the same compound, the dissociation percent in data set [4] (2 min) was determined as 64.3%; in data set [4] (5 min) it was 97.0%; in data set [4] (10 min) it was 100%; in data set [5] (5 min), 77.2%; in data set [5] (20 min), 98.4%; in data set [5] (60 min) it was 100%.
As for `CC(=O)O[C@H]1C(=O)[C@@]2(C)[C@H]([C@H](OC(=O)c3ccccc3)[C@]3(O)C[C@H](OC(=O)[C@H](OC(=O)[C@@H](F)CCN(C)C)[C@@H](NC(=O)c4ccccc4)c4ccccc4)C(C)=C1C3(C)C)[C@]1(OC(C)=O)CO[C@@H]1C[C@@H]2O.CS(=O)(=O)O` [Compound C2, 2′-O-[4-(N,N-dimethyl)amino-2(S)-fluorobutyryl]paclitaxel methanesulfonate], the “Weight change (%) D4” value in data set [3] is listed as −5.8%. In addition, in data set [3], the “T/C (%) D22” value is reported as −61%. The “Tumor volume (D22)” value in data set [3] came to 51.2 ± 11.2 mm^3. In addition, the “Tumor inhibitory percent (%) D22” value in data set [3] is reported as 158%. The dissociation percent worked out at 62.8% in data set [4] (2 min); 96.5% in data set [4] (5 min); 100% in data set [4] (10 min); 69.7% in data set [5] (5 min); 98.1% in data set [5] (20 min); 100% in data set [5] (60 min).
For `CC(=O)O[C@H]1C(=O)[C@@]2(C)[C@H]([C@H](OC(=O)c3ccccc3)[C@]3(O)C[C@H](OC(=O)[C@H](OC(=O)C(F)CCN(C)C)[C@@H](NC(=O)c4ccccc4)c4ccccc4)C(C)=C1C3(C)C)[C@]1(OC(C)=O)CO[C@@H]1C[C@@H]2O.CS(=O)(=O)O` (stereo partly drawn) [Compound C3, 2′-O-[4-(N,N-dimethyl)amino-2(R,S)-fluorobutyryl]paclitaxel methanesulfonate], the “Weight change (%) D4” value in data set [3] is reported as −6.0%. Moreover, the “T/C (%) D22” value in data set [3] was −64%. Also, in data set [3], the “Tumor volume (D22)” value was 50.6 ± 9.7 mm^3. Moreover, the “Tumor inhibitory percent (%) D22” value in data set [3] turned out to be 165%. In addition, the dissociation percent is 63.7% in data set [4] (2 min); 96.8% in data set [4] (5 min); 100% in data set [4] (10 min); 76.5% in data set [5] (5 min); 94.6% in data set [5] (20 min); 100% in data set [5] (60 min).
Take `CC(C)c1cccc(C(C)C)c1OC(=O)[C@@H](CCN(C)C)C(F)(F)F.Cl` [Compound E3, propofol 4-(N,N-dimethyl)amino-2(R)-2-trifluoromethylbutyrate hydrochloride]: the values for the dissociation percent in data set [1] (15 s), in data set [1] (30 s) and in data set [2] (5 s) were 51.7%, 67.2% and 77.5%, respectively.
On to `CC(C)c1cccc(C(C)C)c1OC(=O)[C@@H](F)CCCN(C)Cc1ccccc1.Cl` [Compound E5, propofol 5-(N-methyl-N-benzyl)amino-2(S)-2-fluorovalerate hydrochloride], for which the dissociation percent is on record as 48.4% in data set [1] (15 s), 69.7% in data set [1] (30 s), 72.3% in data set [2] (5 s) and 97.3% in data set [2] (15 s).
For the compound `CC(C)c1cccc(C(C)C)c1OC(=O)[C@@H](F)CCN1CC1.Cl` [Compound E7, propofol 4-N-(aziridin-1-yl)-2(S)-2-fluorobutyrate hydrochloride], the dissociation percent is listed as 89.4% in data set [1] (15 s), 94.4% in data set [1] (30 s) and 92.3% in data set [2] (5 s).
